Results as given in the supplement of paper PMC4932681.

Columns and labels:
[1] = tested on: BT-474; assay: relative IC50 (midpoint of fitted logistic curve, plateau may be below 50% inhibition; CellTiter-Glo viability); higher = less potent; conditions: 72 h
Experimental: (§1)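 FIMM FO2B library drugs were plated at 5 concentrations spanning a 10,000-fold range in 384-well plates. Cells were incubated for 72 h at 37 °C and viability was read by CellTiter-Glo, normalised to DMSO (0% inhibition) and 100 µM benzethonium chloride (100% inhibition). IC50 values come from logistic dose-response fits (Breeze pipeline). Tamoxifen-resistant lines and the 'in 1µM tamoxifen' parental arms were tested in medium with 1 µM 4-OH-tamoxifen.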

[2] = tested on: BT-474 Tam2; assay: as above; conditions: 4-OH-tamoxifen in medium 1 µM; 72 h
Experimental: as §1

[3] = tested on: ZR-75-1; assay: as above; conditions: 72 h
Experimental: as §1

[4] = tested on: MCF-7; assay: as above; conditions: 72 h
Experimental: as §1

[5] = tested on: MCF-7 Tam1; assay: as above; conditions: 4-OH-tamoxifen in medium 1 µM; 72 h
Experimental: as §1

[6] = tested on: BT-474 Tam1; assay: as above; conditions: 4-OH-tamoxifen in medium 1 µM; 72 h
Experimental: as §1

[7] = tested on: T-47D Tam1; assay: as above; conditions: 4-OH-tamoxifen in medium 1 µM; 72 h
Experimental: as §1

[8] = tested on: T-47D; assay: as above; conditions: 72 h
Experimental: as §1

[9] = tested on: ZR-75-1 Tam2; assay: as above; conditions: 4-OH-tamoxifen in medium 1 µM; 72 h
Experimental: as §1

[10] = tested on: BT-474; assay: drug sensitivity score (DSS) (DSS (dimensionless)); higher = more sensitive; extreme values may be limits of the assay; conditions: 72 h
Experimental: (§2)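 FIMM FO2B library drugs were tested at 5 concentrations (10,000-fold range) for 72 h, with CellTiter-Glo viability normalised to DMSO and benzethonium chloride controls. The Drug Sensitivity Score (DSS) is computed from the fitted logistic dose-response curve (area-based; 0 = inactive). Resistant lines and the 'in 1µM tamoxifen' arms were tested in 1 µM 4-OH-tamoxifen.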

[11] = tested on: BT-474 Tam2; assay: as above; conditions: 4-OH-tamoxifen in medium 1 µM; 72 h
Experimental: as §2

[12] = tested on: ZR-75-1; assay: as above; conditions: 72 h
Experimental: as §2

[13] = tested on: MCF-7; assay: as above; conditions: 72 h
Experimental: as §2

[14] = tested on: MCF-7 Tam1; assay: as above; conditions: 4-OH-tamoxifen in medium 1 µM; 72 h
Experimental: as §2

[15] = tested on: BT-474 Tam1; assay: as above; conditions: 4-OH-tamoxifen in medium 1 µM; 72 h
Experimental: as §2

[16] = tested on: T-47D Tam1; assay: as above; conditions: 4-OH-tamoxifen in medium 1 µM; 72 h
Experimental: as §2

[17] = tested on: T-47D; assay: as above; conditions: 72 h
Experimental: as §2

[18] = tested on: ZR-75-1 Tam1; assay: as above; conditions: 4-OH-tamoxifen in medium 1 µM; 72 h
Experimental: as §2

[19] = tested on: T-47D Tam2; assay: as above; conditions: 4-OH-tamoxifen in medium 1 µM; 72 h
Experimental: as §2

[20] = tested on: ZR-75-1 Tam2; assay: as above; conditions: 4-OH-tamoxifen in medium 1 µM; 72 h
Experimental: as §2

[21] = tested on: ZR-75-1 Tam1; assay: relative IC50 (midpoint of fitted logistic curve, plateau may be below 50% inhibition; CellTiter-Glo viability); higher = less potent; conditions: 4-OH-tamoxifen in medium 1 µM; 72 h
Experimental: as §1

In the case of `COC(=O)c1ccc2c(c1)NC(=O)/C2=C(\Nc1ccc(N(C)C(=O)CN2CCN(C)CC2)cc1)c1ccccc1` [Nintedanib (BIBF 1120)], the “relative IC50” value ([1]; 4-OH-tamoxifen in medium 0 µM) was greater than 10 µM, the “relative IC50” value [2] was greater than 10 µM and the “relative IC50” value ([3]; 4-OH-tamoxifen in medium 0 µM) was greater than 10 µM. For the same compound, the “relative IC50” value ([3]; 4-OH-tamoxifen in medium 1 µM) was greater than 10 µM, the “relative IC50” value ([4]; 4-OH-tamoxifen in medium 1 µM) was greater than 10 µM and the “relative IC50” value [5] was greater than 10 µM. For the same compound, the “relative IC50” value [6] was 0.155 µM, the “relative IC50” value [7] was greater than 10 µM and the “relative IC50” value ([8]; 4-OH-tamoxifen in medium 0 µM) was greater than 10 µM. For the same compound, the “relative IC50” value ([8]; 4-OH-tamoxifen in medium 1 µM) was greater than 10 µM, the “relative IC50” value [9] was greater than 10 µM and the drug sensitivity score ([10]; 4-OH-tamoxifen in medium 0 µM) was 0. For the same compound, the drug sensitivity score ([10]; 4-OH-tamoxifen in medium 1 µM) was 3.83, the drug sensitivity score [11] was 0 and the drug sensitivity score ([12]; 4-OH-tamoxifen in medium 0 µM) was 0. It also gave a drug sensitivity score ([12]; 4-OH-tamoxifen in medium 1 µM) of 0, a drug sensitivity score ([13]; 4-OH-tamoxifen in medium 0 µM) of 0.34 and a drug sensitivity score ([13]; 4-OH-tamoxifen in medium 1 µM) of 0. It also gave a drug sensitivity score [14] of 0, a drug sensitivity score [15] of 7.37 and a drug sensitivity score [16] of 0. For the same compound, the drug sensitivity score ([17]; 4-OH-tamoxifen in medium 0 µM) was 0, the drug sensitivity score ([17]; 4-OH-tamoxifen in medium 1 µM) was 0 and the drug sensitivity score [18] was 0. The drug sensitivity score [19] was 0.209 and the drug sensitivity score [20] was 0.
`Cc1ccc(Nc2nccc(N(C)c3ccc4c(C)n(C)nc4c3)n2)cc1S(N)(=O)=O` [Pazopanib] was tested, and the “relative IC50” value ([1]; 4-OH-tamoxifen in medium 0 µM) was greater than 10 µM, the “relative IC50” value ([1]; 4-OH-tamoxifen in medium 1 µM) was greater than 10 µM and the “relative IC50” value [2] was greater than 10 µM. The “relative IC50” value ([3]; 4-OH-tamoxifen in medium 0 µM) was greater than 10 µM, the “relative IC50” value ([4]; 4-OH-tamoxifen in medium 0 µM) was greater than 10 µM and the “relative IC50” value [5] was greater than 10 µM. The “relative IC50” value [7] was greater than 10 µM, the “relative IC50” value ([8]; 4-OH-tamoxifen in medium 1 µM) was greater than 10 µM and the “relative IC50” value [21] was greater than 10 µM. The drug sensitivity score ([10]; 4-OH-tamoxifen in medium 0 µM) was 0, the drug sensitivity score ([10]; 4-OH-tamoxifen in medium 1 µM) was 0 and the drug sensitivity score [11] was 0. It also gave a drug sensitivity score ([12]; 4-OH-tamoxifen in medium 0 µM) of 0, a drug sensitivity score ([12]; 4-OH-tamoxifen in medium 1 µM) of 0 and a drug sensitivity score ([13]; 4-OH-tamoxifen in medium 0 µM) of 0. For the same compound, the drug sensitivity score ([13]; 4-OH-tamoxifen in medium 1 µM) was 0.177, the drug sensitivity score [14] was 0 and the drug sensitivity score [15] was 0.0636. It also gave a drug sensitivity score [16] of 0, a drug sensitivity score ([17]; 4-OH-tamoxifen in medium 0 µM) of 0.231 and a drug sensitivity score ([17]; 4-OH-tamoxifen in medium 1 µM) of 0. The drug sensitivity score [18] was 0, the drug sensitivity score [19] was 0.821 and the drug sensitivity score [20] was 0.0921.
With `N[C@@H](CSC(c1ccccc1)(c1ccccc1)c1ccccc1)C(=O)O` [S-trityl-L-cysteine] the “relative IC50” value ([1]; 4-OH-tamoxifen in medium 0 µM) was 40 µM, the “relative IC50” value [2] was greater than 40 µM and the “relative IC50” value ([3]; 4-OH-tamoxifen in medium 1 µM) was greater than 40 µM. The “relative IC50” value ([4]; 4-OH-tamoxifen in medium 0 µM) was greater than 40 µM, the “relative IC50” value [5] was greater than 40 µM and the “relative IC50” value [7] was greater than 40 µM. The “relative IC50” value ([8]; 4-OH-tamoxifen in medium 1 µM) was greater than 40 µM, the “relative IC50” value [21] was greater than 40 µM and the drug sensitivity score ([10]; 4-OH-tamoxifen in medium 0 µM) was 0. The drug sensitivity score ([10]; 4-OH-tamoxifen in medium 1 µM) was 1.41, the drug sensitivity score [11] was 0 and the drug sensitivity score ([12]; 4-OH-tamoxifen in medium 0 µM) was 1.65. The drug sensitivity score ([12]; 4-OH-tamoxifen in medium 1 µM) was 0, the drug sensitivity score ([13]; 4-OH-tamoxifen in medium 0 µM) was 0 and the drug sensitivity score ([13]; 4-OH-tamoxifen in medium 1 µM) was 1.69. The drug sensitivity score [14] was 0, the drug sensitivity score [15] was 1.68 and the drug sensitivity score [16] was 0. The drug sensitivity score ([17]; 4-OH-tamoxifen in medium 0 µM) was 0.0068, the drug sensitivity score ([17]; 4-OH-tamoxifen in medium 1 µM) was 0 and the drug sensitivity score [18] was 0. It also gave a drug sensitivity score [19] of 0.0046 and a drug sensitivity score [20] of 0.627.
In the case of `CO[C@H]1C[C@@H]2CC[C@@H](C)[C@@](O)(O2)C(=O)C(=O)N2CCCC[C@H]2C(=O)O[C@H]([C@H](C)C[C@@H]2CC[C@@H](O)[C@H](OC)C2)CC(=O)[C@H](C)/C=C(\C)[C@@H](O)[C@@H](OC)C(=O)[C@H](C)C[C@H](C)/C=C/C=C/C=C/1C` [Sirolimus (Rapamycin)], the “relative IC50” value ([3]; 4-OH-tamoxifen in medium 0 µM) was 0.00184 µM, the “relative IC50” value ([3]; 4-OH-tamoxifen in medium 1 µM) was 0.00235 µM and the “relative IC50” value ([4]; 4-OH-tamoxifen in medium 0 µM) was 0.00479 µM. For the same compound, the “relative IC50” value ([4]; 4-OH-tamoxifen in medium 1 µM) was 0.00486 µM, the “relative IC50” value [5] was greater than 1 µM and the “relative IC50” value [6] was greater than 1 µM. For the same compound, the “relative IC50” value [7] was 0.00524 µM, the “relative IC50” value ([8]; 4-OH-tamoxifen in medium 0 µM) was 0.00107 µM and the “relative IC50” value [21] was 0.00448 µM. For the same compound, the “relative IC50” value [9] was 0.002 µM, the drug sensitivity score ([10]; 4-OH-tamoxifen in medium 0 µM) was 5.15 and the drug sensitivity score ([10]; 4-OH-tamoxifen in medium 1 µM) was 1.96. It also gave a drug sensitivity score [11] of 1.85, a drug sensitivity score ([12]; 4-OH-tamoxifen in medium 0 µM) of 12.7 and a drug sensitivity score ([12]; 4-OH-tamoxifen in medium 1 µM) of 9.39. For the same compound, the drug sensitivity score ([13]; 4-OH-tamoxifen in medium 0 µM) was 12.7, the drug sensitivity score ([13]; 4-OH-tamoxifen in medium 1 µM) was 11.1 and the drug sensitivity score [14] was 0. It also gave a drug sensitivity score [15] of 0, a drug sensitivity score [16] of 8.59 and a drug sensitivity score ([17]; 4-OH-tamoxifen in medium 0 µM) of 10.6. The drug sensitivity score ([17]; 4-OH-tamoxifen in medium 1 µM) was 0.392, the drug sensitivity score [18] was 8.75 and the drug sensitivity score [19] was 3.53. It also gave a drug sensitivity score [20] of 12.4.
